Calls of active or inactive are those of the source. No cut-off for these calls is given here.
Experiments:
[1] = biological target: T1, Estrogen receptor (Homo sapiens) (UniProt P03372); assay: Induction of degradation of human ERalpha in human MCF7 cells at 0.01 to 1 uM incubated for 6 hrs followed by irradiated light of 460 nm for 45 mins measured after 3 hrs by immunoblot analysis; format: cell-based; conditions: dose 0.01-1 µM, time 9.0 hrs
T1 sequence (whole entry): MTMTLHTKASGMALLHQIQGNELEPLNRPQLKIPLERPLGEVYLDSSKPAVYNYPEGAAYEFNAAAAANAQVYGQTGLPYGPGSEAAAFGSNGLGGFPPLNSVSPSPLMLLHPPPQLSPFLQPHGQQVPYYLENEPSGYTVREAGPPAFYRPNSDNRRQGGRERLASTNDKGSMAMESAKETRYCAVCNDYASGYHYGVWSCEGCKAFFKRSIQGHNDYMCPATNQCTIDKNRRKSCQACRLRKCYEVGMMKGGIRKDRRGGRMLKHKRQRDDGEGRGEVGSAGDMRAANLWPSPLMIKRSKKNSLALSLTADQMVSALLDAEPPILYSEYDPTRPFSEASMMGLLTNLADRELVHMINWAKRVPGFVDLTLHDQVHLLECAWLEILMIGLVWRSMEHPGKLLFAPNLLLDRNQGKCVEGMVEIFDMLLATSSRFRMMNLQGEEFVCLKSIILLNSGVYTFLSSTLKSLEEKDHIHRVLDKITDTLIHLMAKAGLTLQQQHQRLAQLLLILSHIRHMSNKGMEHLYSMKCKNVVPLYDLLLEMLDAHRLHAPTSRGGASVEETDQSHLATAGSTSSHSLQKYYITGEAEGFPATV

[2] = tested on: MCF7; assay: Induction of apoptosis in human MCF7 cells at 1 uM after irradiation for 30 mins annexin V-FITC/PI double staining method; format: functional, cell-based
[3] = tested on: MCF7; assay: Induction of cell cycle arrest in human MCF7 cells assessed as accumulation of cells at G1 phase at 1 uM after irradiation for 30 mins by propidium iodide based flow cytometry analysis; format: functional
[4] = biological target: T1, Estrogen receptor (Homo sapiens); assay: Induction of degradation of human ERalpha in human MCF7 cells by generation of singlet oxygen at 1 uM in presence of N-acetyl-L-cysteine by fluorescent probe based DCFH-DA assay; format: cell-based
[5] = tested on: MCF7; assay: Antiproliferative activity against human MCF7 cells assessed as cell viability at irradiation for 15 mins measured after 72 hrs; format: functional, cell-based; conditions: MCF7, light or radiation study
[6] = biological target: T1, Estrogen receptor (Homo sapiens); assay: Induction of degradation of human ERalpha in MCF7 cells assessed as ERalpha level at 0.1 uM incubated for 6 hrs followed by irradiation for 30 min measured after 16 hrs; format: cell-based; conditions: time 22.5 hrs
[7] = biological target: T2, Estrogen receptor (Homo sapiens, UniProt P03372); assay: Induction of degradation of human ERalpha in MCF7 cells irradiated with 460 light for 30 mins; format: cell-based
T2 sequence (P03372 whole entry): T1 sequence (whole entry)

[8] = tested on: MCF7; assay: Antiproliferative activity against human MCF7 cells assessed as cell viability at irradiation for 30 mins measured after 72 hrs; format: functional, cell-based; conditions: MCF7, light or radiation study
[9] = tested on: MCF7; assay: Antiproliferative activity against human MCF7 cells assessed as cell viability at irradiation for 45 mins daily for 3 days; format: functional, cell-based; conditions: MCF7, light or radiation study
[10] = tested on: MCF7; assay: Antiproliferative activity against human MCF7 cells in presence of glutathione irradiated daily; format: functional, cell-based
[11] = biological target: T1, Estrogen receptor (Homo sapiens); assay: Induction of degradation of human ERalpha in human MCF7 cells by generation of singlet oxygen at 1 uM in presence of dithiothreitol by fluorescent probe based DCFH-DA assay; format: cell-based
[12] = tested on: MCF-10A; assay: Cytotoxicity against human MCF-10A cells upto 100 uM assessed as cell viability at irradiation for 15 to 45 mins measured after 72 hrs; format: toxicity, cell-based; conditions: time 72.25-72.75 hrs
[13] = tested on: MCF7; assay: Induction of cell cycle arrest in human MCF7 cells assessed as decrease of cells at G2/M phase after irradiation by propidium iodide based flow cytometry analysis; format: functional; conditions: time 15-45 min, TDE = time-dependent effect
[14] = tested on: MCF7; assay: Antiproliferative activity against human MCF7 cells under dark condition; format: functional, cell-based
[15] = biological target: T1, Estrogen receptor (Homo sapiens); assay: Induction of degradation of human ERalpha in MCF7 cells at 1 uM incubated for 6 hrs followed by irradiation for 30 min measured for 24 hrs; format: cell-based; conditions: time 30.5 hrs
[16] = biological target: T2, Estrogen receptor; assay: Binding affinity to human ERalpha by competitive fluorometric receptor binding assay
[17] = biological target: T1, Estrogen receptor (Homo sapiens); assay: Induction of degradation of human ERalpha in human MCF7 cells at 1 uM incubated for 1 to 12 hrs in dark after 3 hrs by immunoblot analysis; format: cell-based; conditions: time 4-15 hrs
[18] = biological target: T1, Estrogen receptor (Homo sapiens); assay: Induction of human ERalpha degradation-mediated apoptosis in human MCF7 cells assessed as loss of mitochondrial membrane potential at 0.01 uM irradiated for 45 mins by TMRM fluorescence based cytometric analysis; format: cell-based
[19] = biological target: T1, Estrogen receptor (Homo sapiens); assay: Induction of degradation of human ERalpha in human MCF7 cells by generation of singlet oxygen at 1 uM in presence of glutathione by fluorescent probe based DCFH-DA assay; format: cell-based
[20] = biological target: T1, Estrogen receptor (Homo sapiens); assay: Induction of degradation of human ERalpha irradiated with 460 +/- 10 nm LED light for 30 to 45 mins by gel electrophoresis; conditions: time 30-45 min
[21] = biological target: T1, Estrogen receptor (Homo sapiens); assay: Induction of degradation of human ERalpha in human MCF7 cells at 1 uM incubated for 1 to 6 hrs followed by irradiated light of 460 nm for 30 mins measured after 3 hrs by immunoblot analysis; format: cell-based; conditions: time 4.5-9.5 hrs
[22] = tested on: MCF7; assay: Antiproliferative activity against human MCF7 cells assessed as cell viability at irradiation for 30 mins daily for 3 days; format: functional, cell-based; conditions: MCF7, light or radiation study
[23] = Drug uptake in human MCF7 cells assessed as peak mean fluorescence intensity measured after 6 to 12hrs by cytometric analysis; format: ADME, cell-based
[24] = biological target: T1, Estrogen receptor (Homo sapiens); assay: Induction of human ERalpha degradation-mediated apoptosis in human MCF7 cells assessed as increase in cytochrome c release from mitochondria at 0.01 uM irradiated for 45 mins by ELISA analysis
[25] = biological target: T1, Estrogen receptor (Homo sapiens); assay: Induction of degradation of human ERalpha in human MCF7 cells assessed as decrease in expression of cyclin D1 gene at 24 hrs; format: cell-based
[26] = tested on: MCF7; assay: Induction of cell cycle arrest in human MCF7 cells assessed as cells at S phase after irradiation measured after 16 hrs by propidium iodide based flow cytometry analysis; format: functional
[27] = biological target: T1, Estrogen receptor (Homo sapiens); assay: Induction of degradation of human ERalpha in MCF7 cells at 0.01 to 0.1 uM irradiated with 460 light for 15 to 60 mins; format: cell-based; conditions: dose 0.01-0.1 µM, time 15-60 min
[28] = biological target: T1, Estrogen receptor (Homo sapiens); assay: Induction of human ERalpha degradation-mediated apoptosis in human MCF7 cells assessed as increase in expression level of Bcl-2 at 0.01 uM irradiated for 45 min by ELISA analysis; format: cell-based
[29] = biological target: T1, Estrogen receptor (Homo sapiens); assay: Induction of degradation of human ERalpha in MCF7 cells at 0.1 uM incubated for 6 hrs followed by irradiation for 30 min measured after 2 to 8 hrs; format: cell-based; conditions: time 8.5-14.5 hrs, TDE = time-dependent effect
[30] = tested on: MCF-10A; assay: Cytotoxicity against human MCF-10A cells upto 100 uM under dark condition; format: toxicity, cell-based
[31] = tested on: MCF7; assay: Induction of cell cycle arrest in human MCF7 cells assessed as accumulation of cells at G1 phase after irradiation by propidium iodide based flow cytometry analysis; format: functional; conditions: time 15-45 min, TDE = time-dependent effect
[32] = biological target: T1, Estrogen receptor (Homo sapiens); assay: Induction of degradation of human ERalpha in human MCF7 cells assessed as decrease in expression of c-MYC gene at 24 hrs; format: cell-based
[33] = tested on: MCF7; assay: Induction of cell cycle arrest in human MCF7 cells assessed as transition of cells from G1 to S phase after irradiation measured after 24 hrs by propidium iodide based flow cytometry analysis; format: functional
[34] = biological target: T1, Estrogen receptor (Homo sapiens); assay: Induction of degradation of human ERalpha by generation of singlet oxygen incubated for 3 hrs followed by irradiated with 460 +/- 10 nm LED light for 30 mins by circular dichroism spectroscopy; conditions: time 210.0 min
[35] = biological target: T2, Estrogen receptor; assay: Induction of degradation of human ERalpha in MCF7 cells irradiated with 460 light for 45 mins; format: cell-based
[36] = tested on: MCF7; assay: Antiproliferative activity against human MCF7 cells assessed as cell viability at irradiation for 45 mins measured after 72 hrs; format: functional, cell-based; conditions: MCF7, light or radiation study
[37] = tested on: MCF7; assay: Antiproliferative activity against human MCF7 cells in presence of dithiothreitol irradiated daily; format: functional, cell-based
[38] = biological target: T1, Estrogen receptor (Homo sapiens); assay: Binding affinity to human ERalpha assessed as change in entropy by isothermal titration calorimetry
[39] = biological target: T1, Estrogen receptor (Homo sapiens); assay: Induction of human ERalpha degradation in human MCF7 cells assessed as increase in response of cell to ABT-263-mediated Bcl-2 inhibition; format: cell-based
[40] = biological target: T1, Estrogen receptor (Homo sapiens); assay: Induction of degradation of human ERalpha by generation of singlet oxygen incubated for 3 hrs followed by irradiated with 460 +/- 10 nm LED light for 15 mins by circular dichroism spectroscopy; conditions: time 195.0 min
[41] = tested on: MCF7; assay: Induction of cell cycle arrest in human MCF7 cells assessed accumulation of cells at G1 phase after irradiation measured after 16 hrs by propidium iodide based flow cytometry analysis; format: functional
[42] = tested on: MCF7; assay: Antiproliferative activity against human MCF7 cells in presence of N-acetyl-L-cysteine irradiated daily; format: functional, cell-based
[43] = biological target: T1, Estrogen receptor (Homo sapiens); assay: Induction of human ERalpha degradation-mediated apoptosis in human MCF7 cells assessed as increase in expression level of Bax at 0.01 uM by ELISA analysis; format: cell-based
[44] = biological target: T1, Estrogen receptor (Homo sapiens); assay: Induction of degradation of human ERalpha in MCF7 cells at 0.1 uM incubated for 6 hrs followed by irradiation for 30 min measured after 2 hrs; format: cell-based; conditions: time 8.5 hrs
[45] = biological target: T1, Estrogen receptor (Homo sapiens); assay: Induction of degradation of human ERalpha irradiated with 460 +/- 10 nm LED light for 15 mins by gel electrophoresis
[46] = biological target: T1, Estrogen receptor (Homo sapiens); assay: Induction of human ERalpha degradation-mediated apoptosis in human MCF7 cells assessed as increase in expression level of p53 at 0.01 uM by ELISA analysis; format: cell-based
[47] = tested on: MCF7; assay: Antiproliferative activity against human MCF7 cells assessed as cell viability at irradiation for 15 mins daily for 3 days; format: functional, cell-based; conditions: MCF7, light or radiation study
[48] = biological target: T1, Estrogen receptor (Homo sapiens); assay: Induction of human ERalpha degradation-mediated apoptosis in human MCF7 cells assessed as increase in expression level of Bak at 0.01 uM by ELISA analysis; format: cell-based
[49] = tested on: MCF7; assay: Induction of apoptosis in human MCF7 cells assessed as late apoptotic cells at 0.01 to 1 uM irradiated 30 mins for 3 days by annexin V-FITC/PI double staining method; format: functional, cell-based; conditions: dose 0.01-1 µM
[50] = tested on: MCF7; assay: Induction of cell cycle arrest in human MCF7 cells assessed as decrease of cells at S phase after irradiation by propidium iodide based flow cytometry analysis; format: functional; conditions: time 15-45 min, TDE = time-dependent effect
[51] = biological target: T1, Estrogen receptor (Homo sapiens); assay: Binding affinity to human ERalpha assessed as change in enthalpy by isothermal titration calorimetry

Brc1ccc(-c2ccc(N(c3ccccc3)c3ccccc3)cc2)c2nsnc12
Activity [1]: inactive | Activity [2]: inactive | Activity [3]: inactive

C[C@]12CC[C@@H]3c4ccc(O)cc4CC[C@H]3[C@@H]1CC[C@@]2(O)C#Cc1ccc(-c2ccc(N(c3ccccc3)c3ccccc3)cc2)c2nsnc12
Activity [4]: inactive | IC50 [5]: 8.9 µM | Activity [6]: 90% | EC50 [7]: 17 µM | IC50 [8]: 6.1 µM | IC50 [9]: 0.022 µM | Activity [10]: inactive | Activity [11]: inactive | Activity [12]: Non-Toxic | Activity [13]: Tde | Activity [14]: inactive | Activity [15]: Active | Ki [16]: 0.0728 µM | Activity [17]: Active | Activity [18]: Active | Activity [19]: inactive | Activity [20]: Active | Activity [21]: Active | IC50 [22]: 0.11 µM | Drug uptake [23]: Active | Activity [24]: Active | Activity [25]: Active | Activity [26]: inactive | Activity [27]: Active | Activity [28]: inactive | Activity [29]: Tde | Activity [30]: Non-Toxic | Activity [31]: Tde | Activity [32]: Active | Activity [33]: Active | Activity [34]: Active | EC50 [35]: 0.5 µM | IC50 [36]: 5.9 µM | Activity [37]: inactive | deltaS [38]: 52.2 J/mol/K | Activity [39]: Active | Activity [40]: Active | Activity [41]: Active | Activity [42]: inactive | Activity [43]: Active | Activity [44]: Active | Activity [45]: Active | Activity [46]: Active | IC50 [47]: 3.5 µM | Activity [48]: Active | Activity [49]: Active | Activity [50]: Tde | deltaH [51]: -4.39 kcal/mol

— ChEMBL document CHEMBL5042547, “Activable Targeted Protein Degradation Platform Based on Light-triggered Singlet Oxygen” (J Med Chem, 2022)
